Results taken from patent publication US20250011826A1, “mRNA CAP ANALOGUE AND USE THEREOF” (HANMI FINE CHEMICAL CO., LTD., priority 2021, published 2025).

What was measured:
[1] = biological target: T7 RNA polymerase (Escherichia phage T7, UniProt P00573); assay: In vitro transcription of luciferase mRNA by co-transcriptional capping (IVT yield); format: biochemical; conditions: 8 mM cap analog, luciferase DNA template, 37° C. 2 to 3 hours; compared with Cleancap AG(3′OMe) designated as 100%; FIG. 4
Protocol: For the mRNA synthesis reaction using the compounds prepared in Example 15 and Example 16 above, a transcription buffer was used, and the composition of the buffer was Tris-Cl buffer: spermidine:Triton X=4:2:1 volume ratio. In the buffer, 50 μg/ml luciferase DNA transcription template, 10 mM ATP, 10 mM CTP, 10 mM UTP, 2 mM GTP, and 8 mM compound prepared in Example 15 or Example 16, 300 KU/ml T7 RNA polymerase, 2 KU/ml RNase inhibitor protein, 20 U/ml inorganic pyrophosphatase, 40 mM Tris-HCl (pH 8.0), 50 mM magnesium chloride, and 10 mM dithiothreitol were added to prepare the transcription reaction mixture. […] The concentration of the purified mRNA sample was determined using a fluorometer instrument, and the total amount of mRNA was calculated by multiplying the concentration and reaction volume. Then, in order to derive the mRNA in vitro transcription (IVT) yield, the total amount of mRNA synthesized using each different cap analog was divided by the input L-DNA content to quantify the IVT yield value according to the cap analog. […] This may be calculated using [Equation 1] below. […]

[2] = system: HeLa cells; assay: Translation of luciferase mRNA in HeLa cells (luciferase activity after transfection of capped mRNA); format: cell-based
Protocol: The translational activity of the mRNAs generated by the IVT reactions of each Example 15, Example 16, and ^7mG(3OMe)pppA(2′OMe)pG was evaluated by transfecting the corresponding mRNAs into the HeLa cell line. All mRNAs synthesized through IVT reaction before transfection were subjected to poly(A) tailing process. Specifically, IVT mRNA, whose mRNA synthesis reaction was terminated by adding DNase 1, was mixed with IVT mRNA:10× poly (A) polymerase reaction buffer:10 mM ATP solution:poly (A) polymerase enzyme (4 KU/ml):nuclease-free water=20:10:10:2:58 ratio (volume/volume), reacted at 37° C. for 30 minutes to 1 hour, and then incubated at 4° C. to terminate the reaction. […] Cells were harvested 6, 12, and 24 hours after transfection, and luciferase activity was measured using Renilla-Glo™ Luciferase Assay kit (Promega catalog #E2710) according to the manufacturer's recommendations: After removing the medium from the transfected cells, 50 μl phosphate buffer solution (PBS) was added. Afterwards, 50 μl of Renilla-Glo™ Luciferase Assay reagent was added, mixed, and incubated for 10 minutes, and then luciferase activity was detected using Varioskan LUX Multimode Microplate Reader (Thermo Fisher) (FIG. 5). […]

Sequence of T7 RNA polymerase (P00573 whole entry): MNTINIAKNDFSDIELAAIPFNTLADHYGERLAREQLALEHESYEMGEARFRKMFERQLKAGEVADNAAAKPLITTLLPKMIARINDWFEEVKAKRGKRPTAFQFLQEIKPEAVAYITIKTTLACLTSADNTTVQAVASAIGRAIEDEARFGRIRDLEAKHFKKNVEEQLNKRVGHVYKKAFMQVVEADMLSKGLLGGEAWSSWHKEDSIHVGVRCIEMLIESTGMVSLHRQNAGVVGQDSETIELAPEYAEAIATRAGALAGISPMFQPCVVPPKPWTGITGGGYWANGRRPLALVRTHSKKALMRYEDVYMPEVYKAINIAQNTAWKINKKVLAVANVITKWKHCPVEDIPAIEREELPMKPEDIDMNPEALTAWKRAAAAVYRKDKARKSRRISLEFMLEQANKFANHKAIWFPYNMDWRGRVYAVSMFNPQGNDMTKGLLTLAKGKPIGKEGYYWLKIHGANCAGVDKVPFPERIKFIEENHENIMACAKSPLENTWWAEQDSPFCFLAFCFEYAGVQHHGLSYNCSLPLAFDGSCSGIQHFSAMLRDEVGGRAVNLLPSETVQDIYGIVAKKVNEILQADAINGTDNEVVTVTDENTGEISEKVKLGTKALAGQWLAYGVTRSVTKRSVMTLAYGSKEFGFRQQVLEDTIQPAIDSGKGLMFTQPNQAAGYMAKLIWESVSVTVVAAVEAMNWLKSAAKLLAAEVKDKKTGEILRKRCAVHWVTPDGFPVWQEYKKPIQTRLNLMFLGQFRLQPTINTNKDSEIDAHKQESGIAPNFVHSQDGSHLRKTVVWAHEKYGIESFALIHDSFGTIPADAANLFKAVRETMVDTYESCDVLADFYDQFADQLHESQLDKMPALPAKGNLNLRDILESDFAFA

| Compound | IVT yield of mRNA relative to ^7mG(3′OMe)pppA(2′OMe)pG [1] | luciferase activity of mRNA capped with the compound ([2]; 100 ng mRNA per well, 6 to 24 hours after transfection, compared with mRNA capped with ^7mG(3′OMe)pppA(2′OMe)pG, FIG. 5) | residual rate of protein expressed by capped mRNA ([2]; 24 hours after transfection, inferred, compared with ^7mG(3′OMe)pppA(2′OMe)pG, FIG. 6) |
| --- | --- | --- | --- |
| CO[C@@H]1[C@H](OP(=O)(O)OC[C@H]2O[C@@H](n3cnc4c(=O)[nH]c(N)nc43)[C@H](O)[C@@H]2O)[C@@H](COP(=O)(O)OP(=O)(O)OP(=O)(O)OC[C@H]2O[C@@H](n3c[n+](C)c4c(=O)[nH]c(N)nc43)[C@H](OC(=O)C(C)(C)C)[C@@H]2OC(=O)C(C)(C)C)O[C@H]1n1cnc2c(N)ncnc21.[Na+].[Na+].[Na+] [Example 15, ^7mG(2′,3′ Pivaloyl)pppA(2′ OMe)pG] | almost the same yield | – | – |
| ^7mG(2′ or 3′monopivaloyl)pppA(2′OMe)pG [Example 16] | almost the same yield | higher luciferase activity | higher |
